Results taken from ChEMBL document CHEMBL4888484, “Replenishing the malaria drug discovery pipeline: Screening and hit evaluation of the MMV Hit Generation Library 1 (HGL1) against asexual blood stage Plasmodium falciparum ,using a nano luciferase reporter read-out” (2022).

Legend:
[1] = Hit confirmation in dose-response curve in HepG2 cytotoxicity assay, at 72h; format: toxicity, cell-based; parameters: timepoint 72 hour; conditions: human, HepG2 cells
Plasmodium falciparum [2] = experiment: Hit confirmation in dose-response curve in NF54 nanoGlo assay, at 72h; format: functional, organism-based, Erythrocyte; parameters: timepoint 72 hour; conditions: Plasmodium falciparum, NF54, Erythrocyte, 72 h
Plasmodium falciparum [3] = experiment: Hit confirmation in dose-response curve in NF54 nanoGlo assay, at 12h; format: functional, organism-based, Erythrocyte; parameters: timepoint 12 hour; conditions: Plasmodium falciparum, NF54, Erythrocyte, 12 h
Plasmodium falciparum [4] = experiment: Hit confirmation in dose-response curve in Dd2 pLDH assay, at 72h; format: functional, organism-based; parameters: timepoint 72 hour; conditions: Dd2, Erythrocyte
Plasmodium falciparum [5] = experiment: Hit confirmation in dose-response curve in NF54 pLDH assay, at 72h; format: functional, organism-based; parameters: timepoint 72 hour; conditions: NF54, Erythrocyte

Compound	IC50 at 72 h [1] [µM]	IC50 (Plasmodium falciparum [2]) [µM]	IC50 (Plasmodium falciparum [3]) [µM]	IC50 (Plasmodium falciparum [4]) [µM]	IC50 (Plasmodium falciparum [5]) [µM]
Cc1ccc(CN2CCN(C[C@@H](O)Cn3c4ccccc4n4c(=O)cc(C)c(C#N)c34)CC2)c(C)c1	> 10	1.35	1.62	3.24	3.55
Cc1nc2cc(NC(=O)[C@@]3(C)CCCN(C(=O)c4ccccc4)C3)ccc2o1	> 10	1.58	0.525	> 10	> 10
Cn1cncc1CC(=O)Nc1ccnc(NC(=O)OC(C)(C)C)c1	> 10	1.23	1.78	2.14	3.8
CC(C)C(NC(=O)COc1ccccc1)C(=O)NCC(c1ccccc1Cl)c1c[nH]c2ccccc12 (stereo not given)	> 10	2.4	3.39	7.76	9.12
Cc1nn(-c2ccccc2)c2nc(Cc3ccccc3)nc(N3CCCN(C(=O)NC4CCCCC4)CC3)c12	> 10	5.01	2.75	> 10	> 10
Cc1oc(-c2ccn[nH]2)cc1S(=O)(=O)Nc1ccc(F)c(Cl)c1	> 10	5.37	2.57	> 10	> 10
Cc1cc(N2C[C@H]3CC[C@@H](C2)[C@H]3N(C)C)nc(Nc2cccc(O)c2)n1	> 10	1.51	5.01	1.78	2.04
Nc1nc(N2CCN(c3ccc(F)c(Cl)c3)CC2)cc([C@H]2C[C@@H](N)C2)n1	> 10	2.75	6.31	6.31	5.75
Cc1ccc(CC[C@H]2Nc3ccccc3C(c3ccccc3)(c3ccccc3)O2)o1	> 10	1.86	9.33	5.37	3.47
CNc1nc(Nc2ccc3c(c2)OCCO3)nc2ccccc12	> 10	0.851	1.91	1.17	1.17
O=C(COc1ccccc1)Nc1ccc2c(c1)C(O)=Nc1cccnc1O2	> 10	1.74	> 10	2.82	2.45
CN1CCC(n2ncc3[nH]c(-c4ccc(C(F)(F)F)cc4)nc32)CC1	> 10	0.692	1.32	1.2	1.51
CC(C)[C@@H]1CC[C@H](C)C[C@H]1OC(=O)Cn1cc(-c2ccc(Cl)cc2)[n+]2c1CCC2	> 10	0.955	5.01	1.2	2.34
CN(C)c1noc(CN2CCc3ccc(F)cc3C2)n1	> 10	5.01	> 10	> 10	7.24
CN1CC[C@H](CN(C)Cc2ccc3cc(O)ccc3c2)C1	> 10	1.78	4.27	3.02	0.832
CCc1ccc(-c2cc3n(n2)C[C@@](C)(C(=O)NC2CCCCC2)N(c2cc(C)cc(C)c2)C3=O)cc1	> 10	2.29	5.75	7.59	10
CCOc1ccc(C2c3[nH]c4ccccc4c3C[C@H]3C(=O)N(C4CCN(Cc5ccccc5)CC4)CC(=O)N23)cc1OC (stereo not given in full)	> 10	1.15	2.69	2.75	5.13
Oc1ccc(-c2nnc(-c3ccc(O)cc3)nn2)cc1	> 10	1.95	5.13	3.09	5.62

Compound	IC50 at 72 h [1] [µM]	IC50 (Plasmodium falciparum [2]) [µM]	IC50 (Plasmodium falciparum [3]) [µM]	IC50 (Plasmodium falciparum [4]) [µM]	IC50 (Plasmodium falciparum [5]) [µM]
C=C1C(C)C2C(Cc3c[nH]c4ccccc34)NC(=O)C23C(=O)CC(O)C(O)CC(C)C/C=C/C3C1O (stereo not given)	> 10	1.82	> 10	3.39	3.16
c1ccc(-c2cn3c(n2)c(-c2ccc4ccccc4n2)cc2ccccc23)cc1	> 10	8.13	10.5	> 10	> 10
Oc1ccc2cc(CN3CCC[C@H](CN4CCCC4)C3)ccc2c1	> 10	1.2	2.45	2.63	1.74
c1ccc(C(c2ccccc2)N2CCN(c3nn4cnnc4c4ccccc34)CC2)cc1	> 10	1.74	2.69	2.82	3.24
Cc1ccccc1C(=O)N(Cc1cccc(F)c1)c1ccc(CC(=O)NCCN2CCCCC2)cc1	> 10	2.57	> 10	4.68	2.75
CCNc1nc(C)cc(Nc2ccc(NC(=O)c3cc(C)ccc3C)cc2)n1	> 10	0.324	0.457	0.631	0.776
Fc1cnc(OC2Cc3ccccc3C2)nc1	> 10	1.86	> 10	> 10	3.24
CCc1cccc(NC(=O)N2CCN(C3=CC4=NC[C@H](C)N4C=N3)CC2)c1	> 10	3.09	> 10	2.95	1.12
Cc1cc(=O)[nH]c(-n2nc(C3CC3)cc2NC(=O)C(C)(C)Oc2ccc(Cl)cc2)n1	> 10	1.1	> 10	5.01	> 10
CC(C)CC[C@@H](CCNC1CCN(C)CC1)c1ccc(Cl)cc1	> 10	1.66	2.82	2.19	2.4
CCn1cc(-c2nc(-c3ccccc3C)no2)c(=O)c2cc(F)c(N3CCOCC3)cc21	> 10	3.55	> 10	4.9	7.08
CCOC(=O)CCn1cc(F)c(=O)[nH]c1=O	> 10	0.0269	> 10	> 10	0.0708
COc1cccc(N2C(=O)C[C@]3(CC3(c3ccccc3)c3ccccc3)C2=O)c1	> 10	4.07	0.832	> 10	> 10
Cc1ccc(S(=O)(=O)Nc2c(S(=O)(=O)c3ccc(C)cc3)c3nc4ccccc4nc3n2C[C@H]2CCCO2)cc1	> 10	2.57	1.35	> 10	> 10
COc1ccc(S(=O)(=O)N2CCC(c3cc(N)on3)CC2)cc1Cl	> 10	1.82	> 10	3.89	6.31
C[C@H]1Cc2cc(C(=O)NCc3nc(C(F)(F)F)n[nH]3)ccc2O1	> 10	4.27	1.45	> 10	> 10
Cc1ccc(N2C(=O)c3ccccc3[C@@H]2c2c[nH]c3ccccc23)cc1	> 10	2.63	5.5	6.92	7.41
Cc1cc(C)cc(-c2cc3nc(C)cc(N4CCC(C(=O)NCc5cccc(F)c5)CC4)n3n2)c1	> 10	1.48	4.37	2.04	2.45
